Measurements as given in the Kinase Knowledgebase extract (Sharma et al. 2016).

Target: MAPK14 (human) (UniProt Q16539)
Assay: Inhibition of MAPK14 Kinase Assay

Chain of MAPK14 (human) (Q16539 whole entry, looked up): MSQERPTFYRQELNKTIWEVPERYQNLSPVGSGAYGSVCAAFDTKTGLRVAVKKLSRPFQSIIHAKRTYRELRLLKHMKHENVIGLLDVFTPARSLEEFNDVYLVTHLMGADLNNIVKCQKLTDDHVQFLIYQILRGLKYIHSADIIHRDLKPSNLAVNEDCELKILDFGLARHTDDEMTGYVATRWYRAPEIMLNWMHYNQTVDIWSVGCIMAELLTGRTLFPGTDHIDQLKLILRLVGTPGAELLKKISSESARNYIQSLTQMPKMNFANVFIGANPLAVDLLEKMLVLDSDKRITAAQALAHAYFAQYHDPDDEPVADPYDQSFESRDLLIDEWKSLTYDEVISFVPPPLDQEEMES

Row | SMILES | IC50 [nM]
1 | CSc1nc(-c2ccc(F)cc2)c(-c2ccncc2)n1NC(=O)c1ccccc1 | 314
2 | CSc1nc(-c2ccc(F)cc2)c(-c2ccncc2)n1N | 1880
3 | O=C(Cc1ccc(F)cc1)Nc1onc(-c2ccc(F)cc2)c1-c1ccncc1 | 113
4 | Cn1nc(-c2ccc(F)cc2)c(-c2ccncc2)c1NC(=O)Cc1ccc(F)cc1 | 29
5 | CSc1nc(-c2ccc(F)cc2)c(-c2ccncc2)n1NC(=O)COc1ccccc1 | 1080
6 | CSc1nc(-c2ccc(F)cc2)c(-c2ccncc2)n1NC(=O)Cc1ccc(F)cc1 | 244
7 | CSc1nc(-c2ccc(F)cc2)c(-c2ccncc2)n1NC(C)=O | 840
8 | CC(C(=O)Nc1onc(-c2ccc(F)cc2)c1-c1ccncc1)c1ccccc1 (stereo not given) | 107

Second part, the molecule after the results:

Row | IC50 [nM] | SMILES
9 | 145 | CSc1nc(-c2ccc(F)cc2)c(-c2ccncc2)n1NC(=O)Nc1ccc(F)cc1
10 | 58 | CSc1nc(-c2ccc(F)cc2)c(-c2ccncc2)n1NC(=O)Cc1ccccc1Cl
11 | 242 | CSc1nc(-c2ccc(F)cc2)c(-c2ccncc2)n1NC(=O)c1ccc(C)c(F)c1
12 | 71 | Cn1nc(-c2ccc(F)cc2)c(-c2ccncc2)c1NC(=O)Cc1ccccc1Cl
13 | 873 | CSc1nc(-c2ccc(F)cc2)c(-c2ccncc2)n1NC(=O)c1cc2ccccc2o1
14 | 308 | CSc1nc(-c2ccc(F)cc2)c(-c2ccncc2)n1NC(=O)c1ccco1
15 | 95 | CSc1nc(-c2ccc(F)cc2)c(-c2ccncc2)n1NC(=O)C(C)c1ccccc1 (stereo not given)
